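Briefly, cells in 96-well plates were exposed to five compound concentrations for 48 h, and endpoints were estimated by linear interpolation. GI50 = concentration required for 50% inhibition of growth. TGI marks complete inhibition of growth.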
Legend:
Test in all cases: DTP human tumour cell line panel, 48 h
[1] = test system: BT-549 breast
[2] = test system: MCF7 breast
[3] = test system: HCT-15 colon
[4] = test system: UACC-257 melanoma
[5] = test system: SF-268 CNS
[6] = test system: MDA-N
[7] = test system: HOP-62 NSCLC
[8] = test system: T-47D breast

| Structure (SMILES) | TGI [1] [µM] | TGI [2] [µM] | TGI [3] [µM] | TGI [4] [µM] | TGI [5] [µM] | TGI [6] [µM] | TGI [7] [µM] | TGI [8] [µM] | GI50 [3] [µM] | GI50 [5] [µM] | GI50 [7] [µM] |
| --- | --- | --- | --- | --- | --- | --- | --- | --- | --- | --- | --- |
| CCN(CC)CCN1CCN=c2c3cc(OC)ccc3n3cnc4ccc1c2c43 | 3.26 | 0.847 | 1.9 | 3.74 | 2.54 | 1.79 | 3.46 | 23.3 | – | – | – |
| CCOP(=O)(CCC(O)CNc1nc(N)nc(Cl)c1N=Nc1ccc(Cl)cc1)OCC (stereo unspecified) | – | 26.3 | 19.6 | 29.5 | 42.7 | 28.3 | 40.2 | 37.3 | – | – | – |
| C=C(CO)[C@H]1CC/C(C)=C/CC/C(C)=C/C/C=C(\C)[C@H](O)C1 | 44.2 | 60.8 | > 100 | 39.7 | 51.4 | > 100 | > 100 | > 100 | – | – | – |
| Cc1ccc2nc(CN3CCCCC3)cc(=O)n2c1 | > 100 | > 100 | > 100 | > 100 | > 100 | – | > 100 | – | – | – | – |
| COc1ccc(-c2cc(=O)c3c(O)c(OC)c(O)cc3o2)cc1O | > 85.5 | 40.9 | > 100 | > 100 | > 100 | > 100 | > 100 | > 100 | – | – | – |
| CCOC(=O)c1c(-c2ccc(Cl)cc2)c(C#N)c(=S)n(C2OC(CO)C(O)C(O)C2O)c1-c1ccccc1 (stereo unspecified) | 61.3 | 50.5 | 85.6 | 62.9 | 55.9 | 49.9 | 36 | 54.4 | – | – | – |
| COC(=O)C(Cc1ccccc1)C(=O)NC(CNC(=O)OCc1ccccc1)C(=O)OCc1ccccc1 (stereo unspecified) | > 100 | > 100 | > 100 | 34.7 | > 100 | 58 | > 100 | > 100 | – | – | – |
| O=C(/C=C/c1c(O)c2ccccc2[nH]c1=O)CC(=O)C(=O)Nc1cccc(O)c1 | > 100 | > 100 | > 100 | > 100 | > 100 | – | – | > 100 | – | – | – |
| CN=C1Nc2ccccc2C(=S)N2CSC[C@@H]12 | – | > 100 | > 100 | – | > 100 | – | > 100 | > 100 | – | – | – |
| CC(C)[Si](OCC/C=C/C1CCC(=O)C1C(O)C1CCCCC1)(C(C)C)C(C)C (stereo unspecified) | 34.1 | 34.2 | 30.6 | 29.5 | 24.7 | 36.4 | 31.3 | 33.7 | – | – | – |
| O=c1[nH]c2nccn2c(Cl)c1Br | 47.2 | > 100 | 33.2 | 45.7 | 49.1 | 45.8 | > 100 | 67.8 | – | – | – |
| CC/C(=C/OC)P1(=O)OC(C)(C)CN1C(C)(C)C (stereo unspecified) | > 100 | > 100 | > 100 | > 100 | > 100 | – | > 100 | > 100 | – | – | – |
| CNC(=O)C(C)NC(=O)C(Cc1ccccc1)NC(=O)OC(C)(C)C (stereo unspecified) | > 100 | > 100 | > 100 | > 100 | > 100 | > 100 | > 100 | > 100 | – | – | – |
| C=CCN1C(=O)N/C(=C\c2ccc(Cl)cc2)C1=O | > 100 | > 100 | > 100 | > 100 | > 100 | > 100 | > 100 | > 100 | – | – | – |
| COc1cc(/C=C2\CCC(C)c3c2nc(N)c(C#N)c3-c2cc(OC)c(OC)c(OC)c2)cc(OC)c1OC (stereo unspecified) | – | > 100 | > 100 | > 100 | > 100 | > 100 | > 100 | – | – | – | – |
| CCC1=NC(N/N=C/c2ccccc2O)=N/C1=C\c1ccccc1O | > 53.7 | > 76.1 | 12.6 | > 100 | > 66.9 | > 100 | 39.2 | > 76.5 | – | – | – |
| C=CCNC(NCC=C)=C(C(Cl)=C(Cl)Cl)[N+](=O)[O-] | 83.4 | > 100 | 32.9 | > 100 | > 100 | > 100 | > 100 | > 100 | – | – | – |
| COc1ccccc1NC(=S)Nc1cccc(C)n1 | > 100 | > 100 | > 100 | > 100 | > 100 | – | > 100 | > 100 | – | – | – |
| COCC1OCCN1C (stereo unspecified) | > 100 | > 100 | > 100 | > 100 | > 100 | > 100 | > 100 | > 100 | – | – | – |
| Nc1ccccc1C(=O)NNC(=O)c1ccccc1N | – | > 100 | > 100 | > 100 | – | > 100 | > 100 | > 100 | – | – | – |

| Structure (SMILES) | TGI [1] [µM] | TGI [2] [µM] | TGI [3] [µM] | TGI [4] [µM] | TGI [5] [µM] | TGI [6] [µM] | TGI [7] [µM] | TGI [8] [µM] | GI50 [3] [µM] | GI50 [5] [µM] | GI50 [7] [µM] |
| --- | --- | --- | --- | --- | --- | --- | --- | --- | --- | --- | --- |
| c1ccc2c(OCC3CO3)ccc(OCC3CO3)c2c1 (stereo unspecified) | 18.8 | 4.66 | 14.9 | 20 | 12.1 | 13 | 10.9 | 15.4 | – | – | – |
| CO[C@H]1C[C@@H]2CC[C@@H](C)[C@@](O)(O2)C(=O)C(=O)N2CCCC[C@H]2C(=O)O[C@H]([C@H](C)C[C@@H]2CC[C@@H](OC(=O)C(C)(CO)CO)[C@H](OC)C2)CC(=O)[C@H](C)/C=C(\C)[C@@H](O)[C@@H](OC)C(=O)[C@H](C)C[C@H](C)/C=C/C=C/C=C/1C | – | – | > 100 | 51.5 | > 85.7 | > 73.4 | > 100 | > 100 | < 0.0222 | 2.99 | < 0.0202 |
| COc1ccc2c(c1)-c1c(c3ccccc3n1CCN1CCCCC1)CC2 | > 71 | > 80.8 | 27.7 | 54.9 | > 95.5 | 67.5 | > 63.1 | > 94.4 | – | – | – |
| [N-]=[N+]=Nc1cc(=O)n(-c2ccccc2)c(=O)n1-c1ccccc1 | > 100 | > 100 | – | > 100 | > 100 | – | > 100 | > 100 | – | – | – |
| CCOC(=O)Cc1nc2nn(Cc3ccccc3)cc2c(=O)[nH]1 | > 100 | > 100 | > 100 | > 100 | > 100 | > 100 | > 100 | > 100 | – | – | – |
| Cc1nc2c(n1CCCl)C(=O)c1ccccc1C2=O | 38.3 | 41.6 | 40.9 | 28.9 | > 100 | 32.6 | 62.4 | – | – | – | – |
| CCOC(=O)C1C(C(C)C)C2(C#N)C(=N)OC1(C)C2(C#N)C#N (stereo unspecified) | – | > 100 | > 100 | > 100 | > 100 | 33.6 | – | > 100 | – | – | – |
| CCCN(CCC)C(=S)N/N=C/c1cccc(C)n1 | – | 0.67 | 24.5 | 0.457 | 15.1 | 22.6 | – | – | – | – | – |
| CC1=C(C#N)C(=O)N(/N=C/c2ccc(Cl)cc2)C(=O)/C1=c1\o/c(=C2/C(=O)N(/N=C/c3ccc(Cl)cc3)C(=O)C(C#N)=C2C)c2nccnc12 | > 100 | > 100 | > 100 | > 100 | > 100 | > 100 | – | > 100 | – | – | – |
| NC(=O)CC1(O)C=CC(=O)C=C1 | > 100 | > 100 | > 100 | > 100 | – | > 100 | > 100 | > 100 | – | – | – |
| COC(=O)CC1CN(C(=O)OCc2ccccc2)C(C)(C)O1 (stereo unspecified) | 66.9 | > 100 | > 100 | > 100 | – | > 100 | – | – | – | – | – |
| O=S(=O)([N-]c1nc2ccccc2nc1-[n+]1ccccc1)c1ccccc1 | > 100 | > 100 | > 100 | > 100 | > 100 | – | > 100 | > 100 | – | – | – |
| CC1(C)C[C@H]2C3=CC[C@@H]4[C@@]5(C)CC[C@H](O)C(C)(C)[C@@H]5CC[C@@]4(C)[C@]3(C)C[C@@H](O)[C@@]23C[C@@H]1OC3=O | – | > 100 | > 100 | > 100 | > 100 | – | > 100 | > 100 | – | – | – |
| CC(=O)CCC(=O)CC(O)(C(F)(F)F)C(F)(F)F | – | 37.1 | 35.4 | 33.7 | 44.6 | – | 33.6 | 40 | – | – | – |
| C#CCOC(=O)C(N)CS (stereo unspecified) | > 100 | > 100 | – | > 100 | > 100 | > 100 | > 100 | > 100 | – | – | – |
| Cc1cc2c(cc1Cl)SC(NNC(=O)c1ccncc1)=NS2(=O)=O | > 10 | – | > 10 | > 10 | > 10 | > 10 | > 10 | > 10 | – | – | – |
| Cc1cc(Cl)ccc1NC(=O)/C(CC(=O)CC(c1ccccc1)c1c(O)c2ccccc2oc1=O)=N\O (stereo unspecified) | > 100 | > 100 | > 100 | > 100 | > 100 | > 100 | > 100 | – | – | – | – |
| CN(C)Cc1cc(C(=O)/C=C/c2c(Cl)cccc2Cl)cc(CN(C)C)c1O | – | 14.7 | 24.2 | 16.9 | 32.4 | 12.7 | 20.2 | 42 | – | – | – |
| CC1=C/C(=N\N(C)C)C(C(O)(C(F)(F)F)C(F)(F)F)C(C)(C)C1 (stereo unspecified) | – | > 100 | > 100 | > 100 | > 100 | > 100 | > 100 | > 100 | – | – | – |
